Square brackets hold non-standard residues; d marks the D form. Peptide text beside a SMILES is read from it. Leu(ol) = CC(C)C[C@H](N)CO; dIva = CC[C@@](C)(N)C(=O)O; Aib = CC(C)(N)C(=O)O
Legend:
[1] = system: Dd2 strain parasites, digestive vacuole; assay: Transmission electron microscopy of treated parasites; note: key: -: A '–' indicates a negative finding; a single '+' indicates a positive finding; a double '++' indicates a strong positive finding; format: cell-based, P. falciparum; conditions: Figure 7A summary
Description: For TEM imaging, samples were prepared as previously described.[67] […] Culture was collected by centrifugation and washed with PBS, pH 7.4. Samples were then fixed in 2% paraformaldehyde, 2.5% glutaraldehyde, in a 0.1 M sodium cacodylate buffer, pH of 7.4, (Electron Microscopy Sciences, Hatfield, PA) and incubated for 2 h at room temp with mild shaking. After fixation, samples were pelleted and stored cold but not frozen in 0.2 M sodium cacodylate buffer prior to staining and embedment in Eponate 12 resin (Ted Pella Inc.). Images were taken using a JEOL 1200 EX transmission electron microscope (JEOL USA Inc., Peabody MA) and processed in AMT Image Capture Engine V602 software (Advanced Microscopy Techniques, Woburn, MA.).

HepG2 cells = assay: HepG2 cytotoxicity assay (MTS); format: cell-based, H. sapiens; conditions: for EC50: 48 h, MTS, absorbance 490 nm, highest concentration 25 μM, mean ± SEM, biological triplicate; for cytotoxicity in HepG2: highest concentration tested 25 μM
Description: HepG2 cells are grown at 37°C in DMEM with 10% FBS, 1% Antibiotic/Antimycotic, 0.3% NaHCO3, 5 mM HEPES pH 7.4, and 2 mM L-glutamine as needed in an atmosphere containing 5% CO2.
The cytotoxicity assay was performed as reported previously.[35] HepG2 cells were seeded at ∼2,250 cells per well 24 h prior to compound addition. Cells were then incubated for an additional 48 h prior to the addition of MTS and absorbance reading at 490 nm on Synergy Neo2 multimode reader (BioTek, Winsooki, VT). Cytotoxicity EC50 values were determined using CDD Vault (https://www.collaborativedrug.com/).

[2] = system: synchronized Dd2 parasites; assay: Synchronous stage specificity assay (SSA); format: cell-based, P. falciparum; conditions: for stage of parasite arrest when added at 6 HPI: 5 x EC50 (TC HA-II 3 x EC50), Giemsa and YOYO-1 flow cytometry; for Stage of Inhibition: Figure 7A summary
Description: SSA was performed in triplicate as previously described.[64] In summary, Dd2 culture was synchronized by combination of MACS column[65] and sorbitol treatment,[66] and cultured at 1% parasitemia, 2% hematocrit, for 54 h. Compound was added at approximately 6, 18, 30, or 42 HPI, and samples were taken every 12 h after treatment times for Giemsa staining and flow cytometric analysis. HZ NPDG-H and HZ NPDG-I were tested at 5 x EC50, TC HA-II tested at 3 x EC50 due to its higher hemolytic potential. All test values above EC90. Flow samples were fixed in 4% paraformaldehyde, incubated for 30 min at 37°C, then washed 3 times in PBS. Fixed samples were stored at 4°C prior to staining, then resuspended in 0.25% Trition X-100 and incubated for 10 min with shaking. Permeabilized samples were centrifuged and resuspended in a 50 μg/mL RNase solution, and incubated for 3 h at 37°C. After centrifugation, samples were resuspended in a YOYO-1 solution (500 nM final concentration) and read on a CytoFLEX S (Beckman Coulter, Brea, CA) at 488 nm excitation, with 100,000–500,000 events recorded per sample. Infected RBCs were gated using an uninfected RBC control in FlowJo version 10. After gating populations, FITC channel values were extracted from FlowJo and the sum total fluorescence of the iRBCs and the median fluorescence for each timepoint were graphed in Graph Pad Prism Version 9. Assay workflow outline was created using BioRender.

asynchronous Dd2 culture = assay: Killing profile (flow cytometry, SYBR Green I / Mitotracker Deep Red FM); format: cell-based, P. falciparum; conditions: for Killing Profile: 10 x EC50
Description: Killing profile analyses were performed as previously described,[64] in asynchronous Dd2 culture, starting at approximately 1% parasitemia, 4% hematocrit. Compound was added to culture in majority ring stage and incubated for 12, 24, or 48 h prior to washing and sample collection. Media were then changed normally every 24 h for 6 days. Samples taken each day were used for Giemsa thin smears, and flow cytometric analysis to monitor parasitemia and mitotracker retention. For staining, samples were incubated in a solution of 1:1000 SYBR Green I and 0.6 μM Mitotracker Deep red FM for 30 min then read on a CytoFLEX S (Beckman Coulter, Brea, CA), with 100,000 events recorded per sample. Flow cytometry was gated in FlowJo Version 10 using DHA, vehicle, no Mitotracker, and uninfected RBC controls. Assay workflow outline was created using BioRender.

[3] = system: HZ NPDG-I-resistant Dd2 clones (pfmdr1 mutants); format: cell-based, P. falciparum; conditions: for pfMDR1 Clone Sensitivity: Figure 7A summary; for pfMDR1 Clone Sensitivity: key: -: A '–' indicates a negative finding; a single '+' indicates a positive finding; a double '++' indicates a strong positive finding
Description: Screening of HZ NPDG-I resistant clones was performed at 1% parasitemia, 0.2% hematocrit with flow cytometry in V-shaped 96-well plates. Briefly, compounds were subjected to a 3-fold serial dilution with the highest concentration set at 4 μM or 8 μM. Eleven dilution points were included in addition to no-drug controls. Three technical replicates were set up for each compound at each dilution point. The Dd2-B2 parent line, or the clonal line 1B2, 2B3, 3A3, or 1E2 were added at 0.4% hematocrit and 1% parasitemia to the diluted compounds at a 1:1 ratio. The plate was incubated at 37°C for 72 h in a chamber filled with a hypoxic gas mixture (3% oxygen, 5% carbon dioxide, and 92% nitrogen). After incubation, a blood pellet was formed at the bottom of each well of the 96-well plate. Supernatant was removed without disturbing the pellet, and 20 μl of SYTO 61(1:10,000 dilution; Thermo Fisher Scientific, Cat No. S11343) in PBS was added to each well and incubated for 15 mins at room temperature. The cells in each well were then diluted with 180 μl of PBS and subjected to flow cytometry for parasitemia determination using the HTS (High-Throughput Sampler) of BD FACSCanto II (BD Biosciences, NJ). Flow cytometry data was analyzed using FlowJo Version 10.4.0. Dose response curves were generated and IC50 values obtained with GraphPad Prism Version 9.1.1.
A clone of the Dd2 strain (Dd2-B2) of P. falciparum was used for in vitro evolution of resistance against harzianin NPDG I. Three flasks of 1.2 x 10^8 parasites were continuously exposed to a stepwise-increasing concentration of the compound over ∼3 months starting from 20 nM up to a final concentration of 100 nM. Once a stable rightward shift in 72 h IC50 was observed, cultures were subjected to limiting dilution to obtained harzianin-resistant clones. Each clone was expanded, phenotyped to confirm resistance, and submitted for whole genome sequencing. An untreated flask of Dd2-B2 parasites was maintained in parallel throughout the course of in vitro selection as a control.

[4] = 10 x EC50, monitored for 6 days, 3 biological replicates
[5] = Figure S5, 72 h, SYTO 61 flow cytometry

Row | SMILES | DV Abnormalities [1] | EC50 (HepG2 cells) | cytotoxicity in HepG2 (HepG2 cells) | stage of parasite arrest when added at 6 HPI [2] | Stage of Inhibition [2] | Killing Profile (asynchronous Dd2 culture) | parasitemia after 12 h incubation and washout (asynchronous Dd2 culture; [4]) | parasitemia after 48 h incubation and washout (asynchronous Dd2 culture; [4]) | Killing Profile (asynchronous Dd2 culture; listed as Harzianin NPDG H) | EC50 increase in HZ NPDG-I resistant clones vs parental line ([3]; 4 resistant clones screened) | pfMDR1 Clone Sensitivity [3] | Fold Change in IC50 vs the parental line, clone 1B2 [3, 5] | Fold Change in IC50 vs the parental line, clone 1E2 [3, 5] | Fold Change in IC50 vs the parental line, clone 2B3 [3, 5] | Fold Change in IC50 vs the parental line, clone 3A3 [3, 5]
1 | CC[C@H](C)[C@H](NC(=O)[C@H](C)NC(=O)[C@@H]1CCCN1C(=O)C(C)(C)NC(=O)[C@H](CC(C)C)NC(=O)[C@H](CCC(N)=O)NC(=O)[C@@](C)(CC)NC(C)=O)C(=O)NC(C)(C)C(=O)N1CCC[C@H]1C(=O)N[C@](C)(CC)C(=O)N[C@@H](CC(C)C)C(=O)NC(C)(C)C(=O)N1CCC[C@H]1C(=O)N[C@H](CO)CC(C)C [HZ NPDG-H, harzianin NPDG H] (Ac-[dIva]QL[Aib]PAI[Aib]P[dIva]L[Aib]P[Leu(ol)]) | + | > 25 µM | no cytotoxicity | late trophozoite to early schizont stage | Schizont | cytostatic | recovered by day 3 | increase in parasitemia at day 5 | Slow | 1.4 fold | - | 0.62 | 0.98 | 1.14 | 1.40
2 | CC[C@@](C)(NC(=O)C(C)(C)NC(=O)[C@H](CC(C)C)NC(=O)[C@@H]1CCCN1C(=O)C(C)(C)NC(=O)[C@H](CC(C)C)NC(=O)CNC(=O)C(C)(C)NC(=O)[C@@H](NC(=O)C(C)(C)NC(=O)[C@H](CCC(N)=O)NC(=O)C(C)(C)NC(=O)C(C)(C)NC(=O)[C@H](C)NC(=O)CNC(=O)C(C)(C)NC(C)=O)C(C)C)C(=O)N[C@@H](CCC(N)=O)C(=O)N[C@H](CO)CC(C)C [TC HA-II, trichorzin HA II] (Ac-[Aib]GA[Aib][Aib]Q[Aib]V[Aib]GL[Aib]PL[Aib][dIva]Q[Leu(ol)]) | + | 13 ± 2 µM | Minor cytotoxicity | early arrest with a condensed permatroph morphology | Ring | Rapid | inhibit parasitemia for all 6 days |  |  |  | - |  |  |  | 

From paper PMC10923054, “Antiplasmodial peptaibols act through membrane directed mechanisms” (Cell Chemical Biology, 2024)
